target: T1, human glucocorticoid receptor (GR) complex (Homo sapiens, UniProt P04150); test: Glucocorticoid receptor fluorescence polarization competitive binding assay; conditions: not given;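 also: GR complex expressed in an insect system, wells lacking compound give full signal, excess unlabeled dexamethasone defines the blank, IC50 from logistic curve fit of polarization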
T1 construct: made in house; host or cells: insect expression system (baculovirus lysate)
T1 sequence (P04150 1-777): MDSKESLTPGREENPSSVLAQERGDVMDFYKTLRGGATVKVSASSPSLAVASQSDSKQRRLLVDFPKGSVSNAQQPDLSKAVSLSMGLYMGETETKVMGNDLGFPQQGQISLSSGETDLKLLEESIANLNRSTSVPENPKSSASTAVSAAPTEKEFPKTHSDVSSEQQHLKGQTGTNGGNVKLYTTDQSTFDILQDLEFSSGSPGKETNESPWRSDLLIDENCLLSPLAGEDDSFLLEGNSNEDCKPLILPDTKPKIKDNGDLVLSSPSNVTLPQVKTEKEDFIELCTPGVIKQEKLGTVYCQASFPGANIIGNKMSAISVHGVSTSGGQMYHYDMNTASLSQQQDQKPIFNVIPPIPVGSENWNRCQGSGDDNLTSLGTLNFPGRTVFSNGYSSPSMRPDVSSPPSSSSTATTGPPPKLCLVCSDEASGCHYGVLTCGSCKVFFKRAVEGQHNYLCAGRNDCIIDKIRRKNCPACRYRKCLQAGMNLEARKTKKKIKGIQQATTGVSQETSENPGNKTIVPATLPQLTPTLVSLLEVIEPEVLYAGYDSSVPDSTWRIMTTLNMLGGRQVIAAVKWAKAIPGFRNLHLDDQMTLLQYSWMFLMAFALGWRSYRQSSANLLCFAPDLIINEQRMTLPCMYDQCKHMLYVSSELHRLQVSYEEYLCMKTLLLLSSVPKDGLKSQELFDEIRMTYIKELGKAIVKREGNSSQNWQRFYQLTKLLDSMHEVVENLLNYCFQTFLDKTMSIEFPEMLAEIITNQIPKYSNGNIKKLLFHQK

SMILES	IC50 [nM]
CC(C)(CC(O)(Cc1cc2cc(S(C)(=O)=O)ncc2[nH]1)C(F)(F)F)c1cc(Cl)ccc1S(C)(=O)=O (stereo not drawn) [4-(5-Chloro-2-methanesulfonylphenyl)-1,1,1-trifluoro-2-(5-methanesulfonyl-1H-pyrrolo[2,3-c]pyridin-2-ylmethyl)-4-methylpentan-2-ol]	10
CC(C)(C[C@@](O)(Cc1cc2cc(S(C)(=O)=O)ncc2[nH]1)C(F)(F)F)c1ccc(Cl)cc1S(C)(=O)=O [drawing 13, (R)-4-(4-Chloro-2-methanesulfonylphenyl)-1,1,1-trifluoro-2-(5-methanesulfonyl-1H-pyrrolo[2,3-c]pyridin-2-ylmethyl)-4-methylpentan-2-ol]	36

same assay, conditions: Table 1; competition with TAMRA-labeled dexamethasone; read-out: GR IC50

IC50 [nM]	SMILES
19	CC(C)(CC(O)(Cc1cc2cc(S(C)(=O)=O)ncc2[nH]1)C(F)(F)F)c1cc(F)ccc1S(C)(=O)=O (stereo not drawn) [1,1,1-Trifluoro-4-(5-fluoro-2-methanesulfonylphenyl)-2-(5-methanesulfonyl-1H-pyrrolo[2,3-c]pyridin-2-ylmethyl)-4-methylpentan-2-ol]
71	CC(C)S(=O)(=O)c1cc2cc(CC(O)(CC(C)(C)c3cc(F)ccc3S(C)(=O)=O)C(F)(F)F)[nH]c2cn1 (stereo not drawn) [1,1,1-Trifluoro-4-(5-fluoro-2-methanesulfonylphenyl)-4-methyl-2-[5-(propane-2-sulfonyl)-1H-pyrrolo[2,3-c]pyridin-2-ylmethyl]pentan-2-ol]
80	CCS(=O)(=O)c1cc2cc(CC(O)(CC(C)(C)c3ccc(C)cc3C(N)=O)C(F)(F)F)[nH]c2cn1 (stereo not drawn) [2-[3-(5-Ethanesulfonyl-1H-pyrrolo[2,3-c]pyridin-2-ylmethyl)-4,4,4-trifluoro-3-hydroxy-1,1-dimethylbutyl]-5-methylbenzamide]
6	CC(C)(CC(O)(Cc1cc2cc(S(C)(=O)=O)ncc2[nH]1)C(F)(F)F)c1cc(F)ccc1Br (stereo not drawn) [4-(2-Bromo-5-fluorophenyl)-1,1,1-trifluoro-2-(5-methanesulfonyl-1H-pyrrolo[2,3-c]pyridin-2-ylmethyl)-4-methylpentan-2-ol]
25	CC(C)(CC(O)(Cc1cc2cc(S(C)(=O)=O)ncc2[nH]1)C(F)(F)F)c1cc(F)ccc1O (stereo not drawn) [4-Fluoro-2-[4,4,4-trifluoro-3-hydroxy-3-(5-methanesulfonyl-1H-pyrrolo[2,3-c]pyridin-2-ylmethyl)-1,1-dimethylbutyl]phenol]
38	CCS(=O)(=O)c1cc2cc(CC(O)(CC(C)(C)c3cc(C)ccc3C(N)=O)C(F)(F)F)[nH]c2cn1 (stereo not drawn) [4-Methyl-2-[4,4,4-trifluoro-3-hydroxy-3-(5-ethanesulfonyl-1H-pyrrolo[2,3-c]pyridin-2-ylmethyl)-1,1-dimethylbutyl]benzamide]
44	Cc1ccc(C(N)=O)c(C(C)(C)CC(O)(Cc2cc3cc(S(C)(=O)=O)ncc3[nH]2)C(F)(F)F)c1 (stereo not drawn) [4-Methyl-2-[4,4,4-trifluoro-3-hydroxy-3-(5-methanesulfonyl-1H-pyrrolo[2,3-c]pyridin-2-ylmethyl)-1,1-dimethylbutyl]benzamide]
44	CCS(=O)(=O)c1cc2cc(CC(O)(CC(C)(C)c3ccc(Cl)cc3C(N)=O)C(F)(F)F)[nH]c2cn1 (stereo not drawn) [5-Chloro-2-[3-(5-ethanesulfonyl-1H-pyrrolo[2,3-c]pyridin-2-ylmethyl)-4,4,4-trifluoro-3-hydroxy-1,1-dimethylbutyl]benzamide]
58	Cc1ccc(C(C)(C)CC(O)(Cc2cc3nc(S(C)(=O)=O)ccc3[nH]2)C(F)(F)F)c(C(N)=O)c1 (stereo not drawn) [5-Methyl-2-[4,4,4-trifluoro-3-hydroxy-3-(5-methanesulfonyl-1H-pyrrolo[3,2-b]pyridin-2-ylmethyl)-1,1-dimethylbutyl]benzamide]
250	Cc1ccc(C(C)(C)CC(O)(Cc2cc3cc(S(=O)(=O)C(C)C)ncc3[nH]2)C(F)(F)F)c(C(N)=O)c1 (stereo not drawn) [5-Methyl-2-{4,4,4-trifluoro-3-hydroxy-1,1-dimethyl-3-[5-(propane-2-sulfonyl)-1H-pyrrolo[2,3-c]pyridin-2-ylmethyl]butyl}benzamide]
28	CC(C)(C[C@@](O)(Cc1cc2cc(S(C)(=O)=O)ncc2[nH]1)C(F)(F)F)c1ccc(F)cc1S(C)(=O)=O [drawing 10, (R)-1,1,1-Trifluoro-4-(4-fluoro-2-methanesulfonylphenyl)-2-(5-methanesulfonyl-1H-pyrrolo[2,3-c]pyridin-2-ylmethyl)-4-methylpentan-2-ol]
29	CCS(=O)(=O)c1cc2cc(CC(O)(CC(C)(C)c3ccc(F)cc3S(C)(=O)=O)C(F)(F)F)[nH]c2cn1 (stereo not drawn) [drawing 16, 2-(5-Ethanesulfonyl-1H-pyrrolo[2,3-c]pyridin-2-ylmethyl)-1,1,1-trifluoro-4-(4-fluoro-2-methanesulfonylphenyl)-4-methylpentan-2-ol]

The next lines start with the compound.

SMILES	IC50 [nM]
CCCS(=O)(=O)c1cc2cc(CC(O)(CC(C)(C)c3cc(F)ccc3S(C)(=O)=O)C(F)(F)F)[nH]c2cn1 (stereo not drawn) [1,1,1-Trifluoro-4-(5-fluoro-2-methanesulfonylphenyl)-4-methyl-2-[5-(propane-1-sulfonyl)-1H-pyrrolo[2,3-c]pyridin-2-ylmethyl]pentan-2-ol]	13
CCS(=O)(=O)c1cc2cc(CC(O)(CC(C)(C)c3ccccc3S(C)(=O)=O)C(F)(F)F)[nH]c2cn1 (stereo not drawn) [2-(5-Ethanesulfonyl-1H-pyrrolo[2,3-c]pyridin-2-ylmethyl)-1,1,1-trifluoro-4-(2-methanesulfonylphenyl)-4-methylpentan-2-ol]	44
CCS(=O)(=O)c1cc2cc(CC(O)(CC(C)(C)c3cccc(F)c3S(C)(=O)=O)C(F)(F)F)[nH]c2cn1 (stereo not drawn) [2-(5-Ethanesulfonyl-1H-pyrrolo[2,3-c]pyridin-2-ylmethyl)-1,1,1-trifluoro-4-(3-fluoro-2-methanesulfonylphenyl)-4-methylpentan-2-ol]	55
CCS(=O)(=O)c1cc2cc(CC(O)(CC(C)(C)c3ccccc3S(N)(=O)=O)C(F)(F)F)[nH]c2cn1 (stereo not drawn) [2-[3-(5-Ethanesulfonyl-1H-pyrrolo[2,3-c]pyridin-2-ylmethyl)-4,4,4-trifluoro-3-hydroxy-1,1-dimethylbutyl]benzenesulfonamide]	140
CC(C)(C[C@@](O)(Cc1cc2nc(S(C)(=O)=O)ccc2[nH]1)C(F)(F)F)c1ccccc1C(N)=O [2-[(R)-4,4,4-Trifluoro-2-hydroxy-3-(5-meethanesulfonyl-1H-pyrrolo[3,2-b]pyridin-2-ylmethyl)-1,1-dimethylbutyl]benzamide]	32
CCS(=O)(=O)c1cc2cc(CC(O)(CC(C)(C)c3ccc(Cl)cc3S(C)(=O)=O)C(F)(F)F)[nH]c2cn1 (stereo not drawn) [drawing 15, 4-(4-Chloro-2-methanesulfonylphenyl)-2-(5-ethanesulfonyl-1H-pyrrolo[2,3-c]pyridin-2-ylmethyl)-1,1,1-trifluoro-4-methylpentan-2-ol]	39

target: human recombinant CYP3A4 (Homo sapiens, UniProt P08684); test: Cytochrome P450 inhibition assay (substrate 7-benzyloxy-4-(trifluoromethyl)coumarin); assay type: in vitro ADME; conditions: Table 2;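 also: compounds preincubated at least 10 min at 37 °C before adding enzyme plus substrate, reaction run 30 min at 37 °C, ketoconazole standard curve on every plate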
Sequence (P08684 whole entry): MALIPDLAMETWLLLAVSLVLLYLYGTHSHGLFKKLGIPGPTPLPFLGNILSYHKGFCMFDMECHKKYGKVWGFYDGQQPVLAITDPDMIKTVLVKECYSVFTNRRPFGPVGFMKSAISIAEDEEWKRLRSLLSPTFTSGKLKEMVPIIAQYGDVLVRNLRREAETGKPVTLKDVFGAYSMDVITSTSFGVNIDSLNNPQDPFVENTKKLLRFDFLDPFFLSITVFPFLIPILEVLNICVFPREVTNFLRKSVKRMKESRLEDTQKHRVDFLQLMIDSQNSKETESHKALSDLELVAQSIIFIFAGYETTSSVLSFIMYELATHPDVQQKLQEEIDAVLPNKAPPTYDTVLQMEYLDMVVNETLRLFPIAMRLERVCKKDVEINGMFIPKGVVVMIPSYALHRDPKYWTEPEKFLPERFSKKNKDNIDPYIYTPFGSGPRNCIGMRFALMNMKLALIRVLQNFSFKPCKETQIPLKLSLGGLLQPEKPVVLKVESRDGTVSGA

CYP inhibition (in words)	SMILES
potent CYP inhibitor	CC(C)(CC(O)(Cc1cc2ccncc2[nH]1)C(F)(F)F)c1ccccc1 (stereo not drawn) [Compound 7, reference compound]

same assay, conditions: Table 2, comparison compounds; read-out: CYP3A4 Inhibition IC50

IC50 [nM]	SMILES
180	CC(C)(CC(O)(Cc1cc2ccncc2[nH]1)C(F)(F)F)c1ccccc1S(C)(=O)=O (stereo not drawn) [Compound 2, reference compound]
510	CC(C)(CC(O)(Cc1cc2ccncc2[nH]1)C(F)(F)F)c1ccccc1C(N)=O (stereo not drawn) [Compound 5, reference compound]
900	CC(C)(CC(O)(Cc1cc2ccncc2[nH]1)C(F)(F)F)c1ccccc1 (stereo not drawn) [Compound 7, reference compound]
